Measured values from publication PMC9822280, “A Rapid and Sensitive Liquid Chromatography-Tandem Mass Spectrometry Bioanalytical Method for the Quantification of Encorafenib and Binimetinib as a First-Line Treatment for Advanced (Unresectable or Metastatic) Melanoma—Application to a Pharmacokinetic Study” (Molecules, 2022).
Where two headings read alike, the source gives them in different places.

Key:
[1] = Pharmacokinetic study in rats after oral administration of binimetinib and encorafenib; format: in vivo; conditions: male, Wistar, rat plasma, oral 3.8 mg/kg binimetinib and 20 mg/kg encorafenib, fasting; for AUC(0-t) / AUC(0-inf) / Cmax / MRT inf / half-life: mean ± SD; for AUC(0-t): read-out: AUC0-t (area under the curve up to the last sampling time); for AUC(0-inf): read-out: AUC0-∞ (area under the curve extrapolated to infinity); for Cmax: read-out: Cmax (maximum plasma concentration); for MRT inf: read-out: MRT0-∞ (mean residence time); for half-life: read-out: t1/2kel (half-life in elimination phase) (converted); for Tmax: read-out: Tmax (time taken to reach the maximum plasma concentration)
Protocol: The newly developed and validated LC-MS/MS assay was effectively applied to evaluate BNB and ENF in rat plasma for a pharmacokinetic study after oral administration of 3.8 mg/kg BNB and 20 mg/kg ENF for four healthy male Wistar rats under fasting conditions. […] The values acquired in the current investigation for BNB for t1/2kel and Cl/F parameters are consistent with in vivo BNB PK studies. Furthermore, the Tmax parameter for BNB is similar to that represented in a recently published paper.
Four healthy male Wistar rats (220–250 g) were brought from the Animal Care Center of King Saud University (Saudia Arabia). All experimental procedures were reviewed in accordance with the guidelines of King Saud University Institutional Research Ethics Committee (REC) with an ethics reference number (SE-19–109). Rats were acclimatized for 7 days to laboratory environments before the experiment was directed. Diet was prohibited for 12 h before the experiment, but the water was freely available. The dose of drugs was determined according to the body surface area employing the below-mentioned formula [22]. Human dose (mg/kg) = Animal dose (mg/kg) × animal Km/Human Km
Km is a factor used in dose conversion. It is a ratio of average body weight (kg) and body surface area (m^2). Km values for the rat and human are 6 and 37, respectively. Human dose for BNB and ENF was considered as 90 and 450 mg, respectively.
Blood samples (300 μL) were collected into heparinized 1.5 mL polythene tubes containing ethylenediamine tetraacetic acid dipotassium (EDTA K2) (anticoagulant) before drug administration and at 0.15, 0.5, 1, 2, 4, 6, 8, 12, 18, and 24 h after oral administration of binimetinib (3.8 mg/kg) and encorafenib (20 mg/kg). In the current study, both drugs were dissolved in 1% DMSO/saline. The samples were directly centrifuged at 3500 rpm for 10 min at 4 °C. The plasma obtained was stored at −80 °C until analysis. The same method of extraction described under calibration standards preparation (2.4.) was used for sample preparation. The PK parameters of BNB and ENF such as Cmax, Tmax, t1/2kel, AUC0–24, and AUC0–∞ were calculated by fitting the data to a non-compartmental analysis (NCA) model with PK Solver Add-In software.

[2] = Stability of binimetinib and encorafenib in rat plasma under different storage conditions; format: in vitro ADME; conditions: for recovery at 24 h, 2400 ng/mL / recovery at 2400 ng/mL / recovery at 30 days, 2400 ng/mL: HQC 2400 ng/mL; for recovery at 2400 ng/mL / recovery at 1.5 ng/mL / recovery at 1800 ng/mL: n 3, read-out: Freeze and Thaw Stability at −80 °C (3 Cycles), Recovery (%); for recovery at 30 days, 2400 ng/mL / recovery at 30 days, 1.5 ng/mL / recovery at 30 days, 1800 ng/mL: n 3, read-out: Long Term Stability at −80 °C (30 Days), Recovery (%); for recovery at 24 h, 1.5 ng/mL / recovery at 1.5 ng/mL / recovery at 30 days, 1.5 ng/mL: LQC 1.5 ng/mL; for recovery at 24 h, 1800 ng/mL / recovery at 1800 ng/mL / recovery at 30 days, 1800 ng/mL: MQC 1800 ng/mL
Protocol: An important process of bioanalytical method validation is stability assessment. Stability of BNB and ENF was studied throughout the analysis of three QC samples (LQC, MQC and HQC) of each drug after the application of the different storage conditions. The different parameters investigated include short-term stability at room temperature for 24 h, autosampler stability at 10 °C for 24 h, three freeze and thaw cycles after storing at −80 °C, and long-term stability at −80 °C for 30 days. The results of stability experiments were satisfactory and complied with the accuracy criteria of ±15% of its theoretical concentration.
The stability of ENF and BNB was assessed after exposing the QC samples at LQC, MQC, and HQC to different storage conditions (temperature and time). The applied conditions include short-term stability at room temperature for 24 h in an autosampler for 24 h at 10 °C. Long-term stability was assessed after storing QCs for 30 days at −80 °C. Freeze and thaw stability were evaluated after three freezing and thawing cycles and compared with freshly prepared QCs. Moreover, the stock solution stability for ENF and BNB and IS was studied at a temperature of 5 ± 2 °C. All sample accuracies should be ± 15% to be considered stable.

[3] = n 3, read-out: Autosampler Stability at 10 °C (24 h), Recovery (%)
[4] = n 3, read-out: Short Term Stability at Room Temperature (24 h), Recovery (%)

## Cn1cnc2c(F)c(Nc3ccc(Br)cc3F)c(C(=O)NOCCO)cc21 [Binimetinib, binimetinib]
[1]
  AUC(0-t): 12400 ± 1860 ng·h/mL
  AUC(0-inf): 18200 ± 1310 ng·h/mL
  Cmax: 3430 ± 460 ng/mL
  MRT inf: 4.5 ± 0.28 h
  half-life: 203 ± 25.8 min
  Tmax: 1 h
[2]; [3]
  recovery at 24 h, 2400 ng/mL: 95.4%
  recovery at 24 h, 1.5 ng/mL: 97.3%
  recovery at 24 h, 1800 ng/mL: 104%
[2]
  recovery at 2400 ng/mL: 95.2%
  recovery at 30 days, 2400 ng/mL: 94.8%
  recovery at 1.5 ng/mL: 104%
  recovery at 30 days, 1.5 ng/mL: 95.5%
  recovery at 1800 ng/mL: 104%
  recovery at 30 days, 1800 ng/mL: 104%
[2]; [4]
  recovery at 24 h, 2400 ng/mL: 93.4%
  recovery at 24 h, 1.5 ng/mL: 96.2%
  recovery at 24 h, 1800 ng/mL: 103%

## COC(=O)N[C@@H](C)CNc1nccc(-c2cn(C(C)C)nc2-c2cc(Cl)cc(NS(C)(=O)=O)c2F)n1 [Encorafenib, encorafenib]
[1]
  AUC(0-t): 30300 ± 3010 ng·h/mL
  AUC(0-inf): 36500 ± 3920 ng·h/mL
  Cmax: 16400 ± 1470 ng/mL
  MRT inf: 3.23 ± 0.4 h
  half-life: 149 ± 14.4 min
  Tmax: 1 h
[2]; [3]
  recovery at 24 h, 2400 ng/mL: 92.4%
  recovery at 24 h, 1.5 ng/mL: 96.6%
  recovery at 24 h, 1800 ng/mL: 99.8%
[2]
  recovery at 2400 ng/mL: 96.5%
  recovery at 30 days, 2400 ng/mL: 94.6%
  recovery at 1.5 ng/mL: 99.5%
  recovery at 30 days, 1.5 ng/mL: 97.5%
  recovery at 1800 ng/mL: 96.8%
  recovery at 30 days, 1800 ng/mL: 102%
[2]; [4]
  recovery at 24 h, 2400 ng/mL: 94.5%
  recovery at 24 h, 1.5 ng/mL: 95.2%
  recovery at 24 h, 1800 ng/mL: 103%
